The source made the active and inactive calls. The rule behind the calls is not given here.

In this data set the test system is CCRIS mutagenicity, Ames/micronucleus/aberration tests. In words: CCRIS mutagenicity studies.
The mark [1] stands for this setting: Test System: AMES SALMONELLA TYPHIMURIUM, Strain/Indicator: TA98, Metabolic Activation: NONE, Method: STANDARD PLATE.
[2] abbreviates: Test System: AMES SALMONELLA TYPHIMURIUM, Strain/Indicator: TA100, Metabolic Activation: NONE, Method: STANDARD PLATE.
Where [3] appears, read: Test System: AMES SALMONELLA TYPHIMURIUM, Strain/Indicator: TA100, Metabolic Activation: RAT, LIVER, S-9, AROCLOR 1254, Method: STANDARD PLATE.
Where [4] appears, read: Test System: AMES SALMONELLA TYPHIMURIUM, Strain/Indicator: TA100, Metabolic Activation: NONE, Method: PREINCUBATION
[5] abbreviates: Test System: AMES SALMONELLA TYPHIMURIUM, Strain/Indicator: TA100, Metabolic Activation: RAT, LIVER, S-9, AROCLOR 1254, Method: PREINCUBATION

Take `[Cl][Cd][Cl]`: the mutagenic call by setting is: (End Point: IN VITRO MICRONUCLEUS, Test System: CHL/IU CELLS, Metabolic Activation: NONE) “active; positive”; (End Point: IN VITRO MICRONUCLEUS, Test System: HAMSTER V79 CELLS, Metabolic Activation: NONE) “active; positive”; (End Point: IN VITRO MICRONUCLEUS, Test System: HUMAN PERIPHERAL LYMPHOCYTES, Metabolic Activation: NONE, Method: FISH (CENTROMERIC SIGNAL CONTENT)) “active; positive”; (Test System: AMES SALMONELLA TYPHIMURIUM, Strain/Indicator: TA97, Metabolic Activation: NONE, Method: STANDARD PLATE) “inactive; negative”; (Test System: AMES SALMONELLA TYPHIMURIUM, Strain/Indicator: TA97, Metabolic Activation: RAT, LIVER, S-9, AROCLOR 1254, Method: STANDARD PLATE) “inactive; negative”; under setting [1], “inactive; negative”. Also, the mutagenic call runs as follows: (Test System: AMES SALMONELLA TYPHIMURIUM, Strain/Indicator: TA98, Metabolic Activation: RAT, LIVER, S-9, AROCLOR 1254, Method: STANDARD PLATE) “inactive; negative”; (Test System: AMES SALMONELLA TYPHIMURIUM, Strain/Indicator: TA98, Metabolic Activation: S-9, Method: STANDARD PLATE) “inactive; negative”; under setting [2], “inactive; negative”; under setting [3], “inactive; negative”; (Test System: AMES SALMONELLA TYPHIMURIUM, Strain/Indicator: TA1535, Metabolic Activation: NONE, Method: STANDARD PLATE) “inactive; negative”; (Test System: AMES SALMONELLA TYPHIMURIUM, Strain/Indicator: TA1535, Metabolic Activation: S-9, Method: STANDARD PLATE) “inactive; negative”. The mutagenic call by setting is: (Test System: CHINESE HAMSTER V-79, Strain/Indicator: SP5 V-79 (HPRT)/6-THIOGUANINE, Metabolic Activation: NONE, Method: STANDARD PLATE) “inactive; negative”; (Test System: CHINESE HAMSTER V-79, Strain/Indicator: SPD8 V-79 (HPRT)/6-THIOGUANINE, Metabolic Activation: NONE, Method: STANDARD PLATE) “active; positive”; (Test System: CHINESE HAMSTER V-79 CELLS, Strain/Indicator: V-79 CELLS (HPRT)/6-THIOGUANINE, Metabolic Activation: NONE, Method: PREINCUBATION) “inactive; negative”; (Test System: Chinese hamster lung cells, Strain/Indicator: V-79/HPRT/6-Thioguanidine, Metabolic Activation: None, Method: Standard Plate) “active; positive”; (Test System: E. COLI, Strain/Indicator: WP2 UVRA, Metabolic Activation: NONE, Method: SPOT TEST) “active; positive”; (Test System: E. COLI, Strain/Indicator: WP2 UVRA, Metabolic Activation: NONE, Method: STANDARD PLATE) “active; positive”. Besides, the mutagenic call was “active; positive” (Test System: Rat lymphocytes, Strain/Indicator: Kumin/Male/HPRT/6-Thioguanidine, Metabolic Activation: None, Method: Intraperitoneal injection, blood collection 1, 6, and 12 d later); “inactive; negative” (Test System: UDS HAMSTER TRACHEAL EPITHELIAL CELLS, Strain/Indicator: THY INCORP (NON-S-PHASE), Metabolic Activation: NONE, Method: AUTORADIOGRAPHY); “active; positive” (Test System: UDS RAT TRACHEAL EPITHELIAL CELLS, Strain/Indicator: THY INCORP (NON-S-PHASE), Metabolic Activation: NONE, Method: AUTORADIOGRAPHY).

`O=C(ON(OCc1ccccc1)C(=O)c1ccccc1)c1ccc(Cl)cc1`: the mutagenic call is, setting by setting: under setting [2], “active; positive”; (Test System: AMES SALMONELLA TYPHIMURIUM, Strain/Indicator: TA100, Metabolic Activation: RAT, S-9, AROCLOR, Method: STANDARD PLATE) “active; positive”.

For `O=C/C=C/c1ccc([N+](=O)[O-])o1`, the mutagenic call (Test System: AMES SALMONELLA TYPHIMURIUM, Strain/Indicator: TA98(1,8-DNP6), Metabolic Activation: NONE, Method: STANDARD PLATE) is “active; positive”; the mutagenic call (Test System: AMES SALMONELLA TYPHIMURIUM, Strain/Indicator: TA98(1,8-DNP6), Metabolic Activation: RAT, LIVER, S-9, 3-METHYLCHOLANTHRENE, Method: STANDARD PLATE) was “active; positive”; the mutagenic call (Test System: AMES SALMONELLA TYPHIMURIUM, Strain/Indicator: TA98(NR), Metabolic Activation: NONE, Method: STANDARD PLATE) was “active; positive”; the mutagenic call (Test System: AMES SALMONELLA TYPHIMURIUM, Strain/Indicator: TA98(NR), Metabolic Activation: RAT, LIVER, S-9, 3-METHYLCHOLANTHRENE, Method: STANDARD PLATE) was “active; positive”; the mutagenic call under setting [1] was “active; positive”; the mutagenic call (Test System: AMES SALMONELLA TYPHIMURIUM, Strain/Indicator: TA98, Metabolic Activation: RAT, LIVER, S-9, 3-METHYLCHOLANTHRENE, Method: STANDARD PLATE) was “active; positive”. Besides, the mutagenic call was “active; positive” (Test System: AMES SALMONELLA TYPHIMURIUM, Strain/Indicator: TA100(1,8-DNP6), Metabolic Activation: NONE, Method: PREINCUBATION); “active; positive” (Test System: AMES SALMONELLA TYPHIMURIUM, Strain/Indicator: TA100(1,8-DNP6), Metabolic Activation: RAT, LIVER, S-9, AROCLOR 1254, Method: PREINCUBATION); “active; positive” (Test System: AMES SALMONELLA TYPHIMURIUM, Strain/Indicator: TA100(NR), Metabolic Activation: NONE, Method: PREINCUBATION); “active; positive” (Test System: AMES SALMONELLA TYPHIMURIUM, Strain/Indicator: TA100(NR), Metabolic Activation: RAT, LIVER, S-9, AROCLOR 1254, Method: PREINCUBATION); “active; positive” under setting [4]; “active; positive” under setting [5].

For the molecule `CBr`, the mutagenic call is “inactive; negative” (Test System: AMES SALMONELLA TYPHIMURIUM, Strain/Indicator: TA98, Metabolic Activation: HAMSTER, LIVER, S-9, AROCLOR 1254 (30%), Method: DESICCATOR); “inactive; negative” (Test System: AMES SALMONELLA TYPHIMURIUM, Strain/Indicator: TA98, Metabolic Activation: NONE, Method: DESICCATOR); “inactive; negative” (Test System: AMES SALMONELLA TYPHIMURIUM, Strain/Indicator: TA98, Metabolic Activation: NONE, Method: GAS EXPOSURE); “inactive; negative” (Test System: AMES SALMONELLA TYPHIMURIUM, Strain/Indicator: TA98, Metabolic Activation: RAT, LIVER, S-9, AROCLOR 1254 (30%), Method: DESICCATOR); “inactive; negative” (Test System: AMES SALMONELLA TYPHIMURIUM, Strain/Indicator: TA98, Metabolic Activation: RAT, LIVER, S-9, SODIUM PHENOBARBITAL AND 5,6-BENZOFLAVONE, Method: GAS EXPOSURE); “active; positive” (Test System: AMES SALMONELLA TYPHIMURIUM, Strain/Indicator: TA100, Metabolic Activation: HAMSTER, LIVER, S-9, AROCLOR 1254 (30%), Method: DESICCATOR). The mutagenic call reads like this: (Test System: AMES SALMONELLA TYPHIMURIUM, Strain/Indicator: TA100, Metabolic Activation: NONE, Method: DESICCATOR) “active; positive”; (Test System: AMES SALMONELLA TYPHIMURIUM, Strain/Indicator: TA100, Metabolic Activation: NONE, Method: GAS EXPOSURE) “active; positive”; under setting [4], “active; positive”; under setting [2], “active; positive”; (Test System: AMES SALMONELLA TYPHIMURIUM, Strain/Indicator: TA100, Metabolic Activation: RAT, LIVER, S-9, AROCLOR 1254 (30%), Method: DESICCATOR) “active; positive”; under setting [5], “active; positive”. For the same molecule, the mutagenic call was “active; positive” under setting [3]; “active; positive” (Test System: AMES SALMONELLA TYPHIMURIUM, Strain/Indicator: TA100, Metabolic Activation: RAT, LIVER, S-9, SODIUM PHENOBARBITAL AND 5,6-BENZOFLAVONE, Method: GAS EXPOSURE); “active; positive” (Test System: AMES SALMONELLA TYPHIMURIUM, Strain/Indicator: TA1535, Metabolic Activation: NONE, Method: GAS EXPOSURE); “active; positive” (Test System: AMES SALMONELLA TYPHIMURIUM, Strain/Indicator: TA1535, Metabolic Activation: RAT, LIVER, S-9, SODIUM PHENOBARBITAL AND 5,6-BENZOFLAVONE, Method: GAS EXPOSURE); “inactive; negative” (Test System: AMES SALMONELLA TYPHIMURIUM, Strain/Indicator: TA1537, Metabolic Activation: NONE, Method: GAS EXPOSURE); “inactive; negative” (Test System: AMES SALMONELLA TYPHIMURIUM, Strain/Indicator: TA1537, Metabolic Activation: RAT, LIVER, S-9, SODIUM PHENOBARBITAL AND 5,6-BENZOFLAVONE, Method: GAS EXPOSURE). Further, the mutagenic call is “active; positive” (Test System: E. COLI, Strain/Indicator: WP2UVRA, Metabolic Activation: NONE, Method: GAS EXPOSURE) and “active; positive” (Test System: E. COLI, Strain/Indicator: WP2UVRA, Metabolic Activation: RAT, LIVER, S-9, SODIUM PHENOBARBITAL AND 5,6-BENZOFLAVONE, Method: GAS EXPOSURE).

For the origin of these results see PubChem BioAssay AID1259407 (Chemical Carcinogenesis Research Information System (CCRIS), 2018).
